From BigSolDB 2.1

Nc1ncc(Br)nc1Br
solubility (mole fraction)
Conditions	278.15 K	283.15 K	288.15 K	293.15 K	298.15 K	303.15 K	308.15 K	313.15 K	318.15 K	323.15 K
in ethanol	0.000754	0.000938	0.00115	0.00136	0.00158	0.0018	0.00202	0.00231	0.00261	0.00291
in ethylene glycol	0.000127	0.000155	0.000185	0.000219	0.000256	0.000291	0.00033	0.000373	0.00042	0.000469
in isopropanol	0.000516	0.000615	0.00072	0.00085	0.000986	0.00115	0.00131	0.00149	0.00169	0.00192
in propylene glycol	0.000258	0.000304	0.00037	0.000432	0.000506	0.000577	0.000651	0.000734	0.000827	0.000928
in water	2.55e-06	3.14e-06	3.73e-06	4.44e-06	5.18e-06	5.89e-06	6.76e-06	7.68e-06	8.61e-06	9.63e-06

Nc1nccnc1Cl
solubility (mole fraction)
Conditions	278.15 K	283.15 K	288.15 K	293.15 K	298.15 K	303.15 K	308.15 K	313.15 K	318.15 K	323.15 K
in DMF	0.00918	0.0122	0.0155	0.02	0.0247	0.0295	0.0346	0.04	0.0456	0.0515
in ethylene glycol	0.000725	0.000935	0.00117	0.00147	0.0018	0.00217	0.00257	0.00301	0.00348	0.00394
in isopropanol	0.002	0.00254	0.00319	0.004	0.00488	0.00591	0.00697	0.008	0.00929	0.0109
in methanol	0.00283	0.00372	0.00479	0.00598	0.00723	0.00847	0.01	0.0116	0.0133	0.0153
in water	2.78e-05	3.74e-05	4.95e-05	6.21e-05	7.6e-05	9.05e-05	0.000106	0.000123	0.00014	0.000158
